Literature values as cited in US6486182B1, “Mutual prodrugs of amlodipine and atorvastatin” (Pfizer Inc, priority 1999, dated 2002).

What was measured:
calcium channel = settings: see PCT/EP94/02697
[1] = test system: smooth muscle cell migration; settings: see PCT/EP95/00847

CCOC(=O)C1=C(COCCN)NC(C)=C(C(=O)OC)C1c1ccccc1Cl (single isomer, unassigned) [R(+) isomer, Amlodipine]
calcium channel blocking activity (calcium channel): little or no calcium channel blocking activity
inhibition of smooth muscle cell migration [1]: potent inhibitor
